Test results: paper PMC4955727 (Molecular bioSystems, 2016)
Read-outs that look alike come from different tables or passages of the source.

Key:
[1] = biological target: T1, P-gp (Homo sapiens, UniProt P08183); assay: Rhodamine 123 efflux assay in KB CH^R 8-5 cells; conditions: for inhibition at 45 min, 10 µM: human, KB CH^R 8-5 cells, probe rhodamine 123 (0.5 μg/ml); for Rh123 % inhibition: 10 μM compound, 0.5 μg/ml rhodamine 123, 45 min, 37 °C
[2] = biological target: T1, P-gp; assay: Calcein-AM efflux assay in KB CH^R 8-5 cells; conditions: for P-gp efflux inhibitory activity (in words): calcein-AM and rhodamine 123 assays, 10 μM (Table 4); for inhibition at 10 min, 10 μM / inhibition at 10 µM: human, KB CH^R 8-5 cells; for Calcein-AM Efflux % inhibition: 10 μM compound, 0.5 μM calcein-AM, 10 min, 37 °C; for inhibition at 10 µM: probe calcein-AM (0.5 μg/ml) and rhodamine 123 (0.5 μg/ml)
[3] = system: P-gp; conditions: cited from earlier work
[4] = system: KB CH^R 8-5 cells; type: cell-based
[5] = system: KB 3-1 cells; assay: MTT cytotoxicity of paclitaxel with or without reversal agent, parental cells; type: cell-based
[6] = biological target: T1, P-gp; assay: in vitro
[7] = biological target: T1, P-gp
[8] = system: parental and P-gp overexpressing cell lines; assay: Cytotoxicity assay of quercetin and rutin alone; type: cell-based; conditions: concentrations up to 10 μM, flavonoid alone
[9] = read-out: Actual IC50 (Literature) (A), ref Literature (source not given)

T1 sequence (P08183 whole entry): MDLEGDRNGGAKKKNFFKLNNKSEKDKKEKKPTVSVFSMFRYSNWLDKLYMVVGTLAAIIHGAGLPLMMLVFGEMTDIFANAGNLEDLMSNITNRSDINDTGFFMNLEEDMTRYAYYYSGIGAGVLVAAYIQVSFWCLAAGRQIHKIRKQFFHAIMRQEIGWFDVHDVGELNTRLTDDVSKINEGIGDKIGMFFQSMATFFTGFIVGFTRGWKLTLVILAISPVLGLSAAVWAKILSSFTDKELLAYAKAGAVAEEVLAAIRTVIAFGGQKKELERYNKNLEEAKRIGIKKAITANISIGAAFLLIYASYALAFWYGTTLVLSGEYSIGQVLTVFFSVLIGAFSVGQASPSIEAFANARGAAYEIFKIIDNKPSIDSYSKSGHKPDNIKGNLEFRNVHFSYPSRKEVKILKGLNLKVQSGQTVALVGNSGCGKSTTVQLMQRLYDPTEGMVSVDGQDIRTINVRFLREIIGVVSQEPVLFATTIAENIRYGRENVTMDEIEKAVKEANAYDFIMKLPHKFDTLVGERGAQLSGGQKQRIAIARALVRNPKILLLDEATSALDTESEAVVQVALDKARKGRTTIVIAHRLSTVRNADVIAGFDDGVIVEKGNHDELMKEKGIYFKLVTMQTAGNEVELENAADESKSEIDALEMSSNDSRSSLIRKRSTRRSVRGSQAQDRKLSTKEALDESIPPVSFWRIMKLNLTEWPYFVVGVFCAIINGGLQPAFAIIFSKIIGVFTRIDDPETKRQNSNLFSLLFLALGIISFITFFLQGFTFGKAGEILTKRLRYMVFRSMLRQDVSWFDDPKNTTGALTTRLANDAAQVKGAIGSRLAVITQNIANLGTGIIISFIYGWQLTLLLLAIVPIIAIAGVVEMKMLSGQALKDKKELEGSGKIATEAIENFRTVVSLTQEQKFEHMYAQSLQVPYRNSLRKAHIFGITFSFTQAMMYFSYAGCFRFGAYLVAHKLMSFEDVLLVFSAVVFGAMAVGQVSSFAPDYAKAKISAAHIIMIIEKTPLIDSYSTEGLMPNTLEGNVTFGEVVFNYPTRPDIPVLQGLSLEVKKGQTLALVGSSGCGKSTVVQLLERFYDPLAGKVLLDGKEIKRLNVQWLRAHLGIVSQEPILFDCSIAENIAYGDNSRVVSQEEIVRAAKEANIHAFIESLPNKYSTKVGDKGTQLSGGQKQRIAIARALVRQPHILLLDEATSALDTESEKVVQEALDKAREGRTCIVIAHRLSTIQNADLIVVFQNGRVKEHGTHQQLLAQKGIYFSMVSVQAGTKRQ

inhibition at 45 min, 10 µM [1] | inhibition at 10 min, 10 μM [2] | Compound | P-gp efflux inhibitory activity (in words) [2] | IC50 [3, 9] | further results
75.6% | 70.2% | C[C@@H]1O[C@@H](O[C@H]2[C@H](Oc3cc(O)c4c(c3)O[C@H](c3ccc(O)cc3)CC4=O)O[C@H](CO)[C@@H](O)[C@@H]2O)[C@H](O)[C@H](O)[C@H]1O [Naringin] | moderate inhibitory activity | – | –
– | – | COc1cccc2c1C(=O)c1c(O)c3c(c(O)c1C2=O)C[C@@](O)(C(=O)CO)C[C@@H]3O[C@H]1C[C@H](N)[C@H](O)[C@H](C)O1 [Doxorubicin, reference compound] | – | 0.04 µM | –
– | – | O=c1c(-c2ccc(O)cc2)coc2cc(O)cc(O)c12 [Genistein] | – | – | IC50 [3]: 6.9 µM
– | – | O=C1C[C@@H](c2ccc(O)c(O)c2)Oc2cc(O)cc(O)c21 [Eriodictyol] | – | 50 µM | –
– | – | CC(=O)O[C@H]1C(=O)[C@@]2(C)[C@H]([C@H](OC(=O)c3ccccc3)[C@]3(O)C[C@H](OC(=O)[C@H](O)[C@@H](NC(=O)c4ccccc4)c4ccccc4)C(C)=C1C3(C)C)[C@]1(OC(C)=O)CO[C@@H]1C[C@@H]2O [Paclitaxel] | – | 1.2 µM | FR (fold-resistance) ([4]; KB Ch^R 8-5, paclitaxel alone, vs KB 3-1): [50.0]; IC50 ([4]; read-out: IC50 ± SEM of paclitaxel): 2 ± 0.2 µM; IC50 ([5]; Homo sapiens, KB 3-1, read-out: IC50 ± SEM of paclitaxel): 0.04 ± 0.01 µM; FR (fold-resistance) ([5]; KB 3-1, paclitaxel alone): [1.0]
– | – | COc1cc(C2Oc3cc([C@H]4Oc5cc(O)cc(O)c5C(=O)[C@@H]4O)ccc3OC2CO)ccc1O (some centres unmarked) [Silibinin] | moderate inhibitory activity | 3.4 µM | inhibition at 10 µM [6]: 71.4%; Calcein-AM Efflux % inhibition [2]: 63.75%
– | – | Oc1cc(O)c2c(c1)O[C@H](c1ccc(O)c(O)c1)[C@@H](O)C2 [(+)-Catechin] | – | 50 µM | –
– | – | COc1cc2oc(-c3ccccc3)cc(=O)c2c(O)c1O [Negletein] | – | – | IC50 [3]: 6.4 µM
– | – | COc1cc(O)c2c(=O)c(-c3ccc(O)cc3)coc2c1 [Prunetin] | – | 6.4 µM | –
– | – | O=C1C[C@@H](c2ccc(O)cc2)Oc2cc(O)cc(O)c21 [Naringenin] | – | 16 µM | –
– | – | O=C(O[C@@H]1Cc2c(O)cc(O)cc2O[C@@H]1c1cc(O)c(O)c(O)c1)c1cc(O)c(O)c(O)c1 [(-)-Epigallocatechin gallate] | – | 43.8 µM | –
– | – | O=C(O[C@@H]1Cc2c(O)cc(O)cc2O[C@@H]1c1ccc(O)c(O)c1)c1cc(O)c(O)c(O)c1 [(-)-Epicatechin 3-gallate] | – | 15.1 µM | Rh123 % inhibition [1]: 80.56%; Calcein-AM Efflux % inhibition [2]: 83.25%; IC50 [7]: 33 µM; P-gp efflux inhibitory activity (in words) [7]: moderate inhibitory activity
– | – | COc1cc(-c2oc3cc(O)cc(O)c3c(=O)c2O)ccc1O [Isorhamnetin] | – | – | inhibition at 10 µM [6]: 19.5%; IC50 [3]: 0.34 µM; P-gp efflux inhibitory activity (in words) [7]: low inhibitory activity; Calcein-AM Efflux % inhibition ([7]; human): 23.05%
35% | 39.5% | O=c1cc(-c2ccc(O)cc2)oc2cc(O)cc(O)c12 [Apigenin] | low inhibitory activity | 10 µM | –
25.1% | 33.8% | O=c1c(O)c(-c2ccc(O)cc2)oc2cc(O)cc(O)c12 [Kaempferol] | low inhibitory activity | 4.8 µM | –
– | – | COc1ccc([C@@H]2CC(=O)c3c(O)cc(O)cc3O2)cc1O [Hesperitin] | – | 20 µM | –
– | – | COc1cccc2c1C(=O)c1c(O)c3c(c(O)c1C2=O)C[C@@](O)(C(C)=O)C[C@@H]3O[C@H]1C[C@H](N)[C@H](O)[C@H](C)O1 [Daunorubicin, reference compound] | – | 1 µM | –
– | – | COc1cc2c(=O)c(-c3ccc(O)cc3)coc2cc1O [Glycitein] | – | 5.99 µM | –

inhibition at 45 min, 10 µM [1] | inhibition at 10 min, 10 μM [2] | Compound | P-gp efflux inhibitory activity (in words) [2] | IC50 [3, 9] | further results
– | – | Oc1cc(O)c2c(c1)O[C@H](c1cc(O)c(O)c(O)c1)[C@@H](O)C2 [Gallocatechin] | – | – | IC50 [3]: 136 µM
– | – | Oc1ccc2c(c1)OCO2 [Sesamol] | – | 0.3 µM | –
– | – | COc1ccc([C@@H]2CC(=O)c3c(O)cc(O[C@@H]4O[C@H](CO[C@@H]5O[C@@H](C)[C@H](O)[C@@H](O)[C@H]5O)[C@@H](O)[C@H](O)[C@H]4O)cc3O2)cc1O [Hesperidin] | low inhibitory activity | 6.2 µM | Rh123 % inhibition [1]: 21.09%; Calcein-AM Efflux % inhibition [2]: 29.58%
47.2% | 46% | Oc1ccc(-c2[o+]c3cc(O)cc(O)c3cc2O)cc1 [Pelargonidin] | moderate inhibitory activity | 14 µM | –
– | – | O=c1cc(-c2ccccc2)oc2cc(O)cc(O)c12 [Chrysin] | – | 1.5 µM | –
– | – | COc1ccc(-c2cc(=O)c3c(OC)c(OC)c(OC)c(OC)c3o2)cc1 [Tangeritin] | low inhibitory activity | 3 µM | Rh123 % inhibition [1]: 12.76%; Calcein-AM Efflux % inhibition [2]: 14.23%; inhibition in calcein-AM and rhodamine-123 assays ([2]; 10 μM concentration, both calcein-AM and rhodamine-123 assay data): ≤ 15%
– | – | O=c1c(O)c(-c2ccc(O)c(O)c2)oc2cc(O)cc(O)c12 [Quercetin, 2-(3,4-dihydroxyphenyl)-3,5,7-trihydroxy-4H-chromen-4-one] | – | – | cell survival [8]: > 85%
40.5% | 42.8% | O=c1c(O)c(-c2ccc(O)cc2O)oc2cc(O)cc(O)c12 [Morin] | low inhibitory activity | 8.1 µM | –
– | – | Oc1cc(O)c2c(c1)O[C@H](c1ccc(O)c(O)c1)[C@H](O)C2 [(-)-Epicatechin] | – | 0.4 µM | –
11.5% | 12.6% | O=c1cc(-c2ccc(O)c(O)c2)oc2cc(O)cc(O)c12 [Luteolin] | low inhibitory activity | – | IC50 [3]: 0.8 µM; inhibition at 10 µM [2]: ≤ 15%
– | – | Oc1cc(O)c2c(c1)O[C@H](c1cc(O)c(O)c(O)c1)[C@H](O)C2 [Epigallocatechin] | – | – | IC50 [3]: 118 µM
77.2% | 78.7% | COc1ccc(-c2oc3cc(O)cc(O)c3c(=O)c2O)cc1O [Tamarixetin] | moderate inhibitory activity | 10 µM | IC50 [2]: 46 µM
– | – | O=C1C[C@@H](c2ccccc2)Oc2cc(O)cc(O)c21 [Pinocembrin] | – | 5.8 µM | –
– | – | C[C@@H]1O[C@@H](OC[C@H]2O[C@@H](Oc3c(-c4ccc(O)c(O)c4)oc4cc(O)cc(O)c4c3=O)[C@H](O)[C@@H](O)[C@@H]2O)[C@H](O)[C@H](O)[C@H]1O [Rutin, 2-(3,4-dihydroxyphenyl)-5,7-dihydroxy-3-[α-L-rhamnopyranosyl-(1→6)-β-D-glucopyranosyloxy]-4H-chromen-4-one] | – | – | cell survival [8]: > 85%
– | – | COc1cc(/C=C/C(=O)CC(=O)/C=C/c2ccc(O)c(OC)c2)ccc1O [Curcumin] | – | 1 µM | –
13.1% | 16.8% | O=c1c(O)c(-c2ccc(O)c(O)c2)oc2cc(O)ccc12 [Fistein, Fisetin] | low inhibitory activity | 16 µM | inhibition at 10 µM [2]: ≤ 15%
– | – | COc1cc(O)c2c(c1)O[C@H](c1ccccc1)CC2=O [Pinostrobin] | – | 5.4 µM | –

Compound | inhibition at 45 min, 10 µM [1] | inhibition at 10 min, 10 μM [2] | P-gp efflux inhibitory activity (in words) [2] | IC50 [3, 9] | further results
O=c1c(O)cc([C@H]2Oc3cc(O)cc(O)c3C[C@H]2O)cc2c([C@H]3Oc4cc(O)cc(O)c4C[C@H]3O)cc(O)c(O)c12 [Theaflavine] | 83.2% | 88.8% | very effective P-gp efflux inhibitory activity | 60 µM | IC50 [2]: 20 µM
O=c1c(O)c(-c2cc(O)c(O)c(O)c2)oc2cc(O)cc(O)c12 [Myricetin] | 55.8% | 57.2% | moderate inhibitory activity | 5.9 µM | –
O=c1c(O[C@@H]2O[C@H](CO)[C@@H](O)[C@H](O)[C@H]2O)c(-c2ccc(O)c(O)c2)oc2cc(O)cc(O)c12 [Isoquercitrin] | 18.4% | 19.8% | low inhibitory activity | 24.3 µM | –
O=c1cc(-c2ccccc2)oc2cc(O)c(O)c(O)c12 [Baicalein] | 7.54% | 11% | low inhibitory activity | 1.5 µM | inhibition at 10 µM [2]: ≤ 15%
COc1cc(O)c2c(=O)c(OC)c(-c3ccc(OC)c(OC)c3)oc2c1 [Retusin] | 3.06% | 6.43% | low inhibitory activity | 12 µM | inhibition at 10 µM [2]: ≤ 15%
